Series [1] concerns YAMC cells. The series can be described thus: Proliferation and morphology of YAMC cells in adherent culture. The series is classed as cell-based, mouse. As to conditions: 5 mM, three days, 10% FBS medium. The text has this: (§1) These compounds affect human cancer cell line behavior in vitro in the millimolar range and even higher concentrations are required in vivo (Villar-Garea and Esteller, 2004).

Series [2] relates to mp53/Ras cells. Briefly: Cell death / anoikis by TUNEL staining, mp53/Ras cells. The series is classed as cell-based, mouse. As to conditions: methylcellulose without FBS or ITS-A. How it is done: (§2) The cells were re-plated at 458,000 cells per 15 cm dish in 10% FBS medium and treated for three days with 2.5 mM NB or VA at 39° C. Cells were then trypsinized and (A), (B) suspended in methylcellulose supplemented with fresh NB or VA, 10% FBS, and ITS-A at 37,000 cells per mL, or (C) suspended in methylcellulose w/o FBS, or ITS-A at 150,000 cells per mL and incubated at 39° C. for three days. Cells were extracted from the methylcellulose by repeated re-suspension in PBS w/1% BSA and centrifugation, and briefly trypsinized to break up cell aggregates. The extracted cells were labeled with 10 μM BrdU for ninety minutes prior to harvesting, fixed in cold 80% ethanol, and stained with an anti-BrdU antibody and propidium iodide to measure cell cycle progression (A), or fixed in 4% paraformaldehyde, and TUNEL-stained to measure cell death (B), (C). Error bars represent standard deviation values derived from multiple independent measurements for each sample. […]
(§3) For anoikis assays, cells were then trypsinized, counted and suspended in methylcellulose at a density of 1.5×10^5 cells/mL for an additional 72 hours in the absence of HDACi. […]
(§4) Paraformaldehyde-fixed cells were pelleted and washed with PBS containing 0.1% BSA. […] TUNEL-stained cells were analyzed by flow cytometry using a FACScalibur (Becton Dickinson). The percentage of TUNEL-positive cells was analyzed using ModFit LT for Mac v2.0.

Series [3] deals with YAMC cells. The series can be described thus: Cell death / anoikis by TUNEL staining, YAMC cells. As to conditions: methylcellulose without FBS or ITS-A. Type of series: cell-based, mouse. The protocol:
as §2, §3, §4

For series [4], the system named is mp53/Ras cells. The series can be described thus: Proliferation and morphology of mp53/Ras cells in adherent culture. The series is classed as cell-based, mouse. As to conditions: for cell proliferation over time: mp53/Ras cells, 2.5 mM.
Text: as §1

The test system of series [5] is mp53/Ras cells. Briefly: Xenograft tumor formation by mp53/Ras cells in nude mice. The series is classed as in vivo, mouse. To be noted: for tumor formation in nude mice by drug-pre-treated cells: mp53/Ras cells pre-treated in vitro with 2.5 mM, xenograft, vs untreated cells; for % Change in Tumor Volume (Perturbed vs. Control): mp53/Ras cells with gene perturbation, s.c. in nude mice, 4 weeks, vs matched vector control. The protocol: (§5) Murine mp53/Ras cells were grown at 39° C. for 2 days prior to injection. Human HT-29 and DLD-1 cells were grown in standard conditions, described above. Tumor formation was assessed by sub-cutaneous injection of 5×10^5 cells (mp53/Ras and DLD-1 cells) or 1.25×10^5 cells (HT-29) into CD-1 nude mice (Cr1:CD-1-Foxn1nu, Charles River Laboratories) in appropriate media (RPMI 1640 or DMEM) with no additives. For each replicate of all gene perturbations, 2-12 injections were performed for perturbed cells and vector controls, as indicated in FIGS. 12 and 16. Tumor size was measured by caliper at 2, 3 and 4 weeks post-injection. Tumor volume was calculated by the formula volume=(4/3)πr3, using the average of two radius measurements. Tumor reduction was calculated based on the average tumor volume following each gene perturbation as compared to the directly matched vector control tumors. Statistical significance of difference in tumor size was calculated by the Wilcoxn signed-rank test (Hollander, M. & Wolfe, D. A. Nonparametric Statistical Methods (Wiley-Interscience, Hoboken, N.J., 1998)), comparing tumors derived from perturbed cells with tumors induced by directly matching vector control cells.
Tumor formation was assessed by sub-cutaneous injection of cells into CD-1 nude mice (Cr1: CD-1-Foxn1^nu, Charles River Laboratories). Tumor size was measured by caliper at 2, 3 and 4 weeks post-injection. Significance of difference in tumor size was calculated by the Wilcoxn signed-rank test and by the t-test using directly matching vector control cells for each perturbation.
For tumor formation studies, cells were treated with HDACi as indicated above, then trypsinized, counted and injected sub-cutaneously into the flanks of CD-1 nude mice at a multiplicity of 5×10^5 cells per injection. Mice were observed and tumors measured for 4 weeks post-injection by caliper.
Murine mp53/Ras cells were grown at 39° C. for 2 days prior to injection. Human CaPan-2 and PC3 cells were grown in standard conditions, described above. Tumor formation was assessed by sub-cutaneous injection of 5×10^5 mp53/Ras cells or 7.5×10^5 CaPan-2 or PC3 cells into CD-1 nude mice (Cr1: CD-1-Foxn1^nu, Charles River Laboratories) in appropriate media (RPMI 1640 or DMEM) with no additives. For each replicate of all gene perturbations, 2-12 injections were performed for perturbed cells and vector controls. Tumor size was measured by caliper weekly for up to 6 weeks post-injection. Tumor volume was calculated by the formula volume=(4/3)πr^3, using the average of two radius measurements. Tumor reduction was calculated based on the average tumor volume following each gene perturbation as compared to the directly matched vector control tumors. Statistical significance of difference in tumor size was calculated by both the Wilcoxn signed-rank test and the t-test to assess consistency of significance calls, comparing tumors derived from perturbed cells with tumors induced by directly matching vector control cells.

The test system of series [6] is cooperation response genes. Briefly: TLDA QPCR of CRG expression in HDACi-treated mp53/Ras cells. As to conditions: 2.5 mM, 3 days, 56 CRGs tested by TLDA. The series is classed as cell-based, mouse. How it is done:
The YAMC cell system (Jat et al., 1991; Whitehead et al., 1993) and transformation of these cells by mp53/Ras are described elsewhere (Xia and Land, 2007). YAMC and mp53/Ras cells were cultured for two days at 39° C. in RPMI with 10% FBS without interferon-γ on collagen IV-coated dishes. Cells were then re-plated on collagen IV-coated dishes into the same medium containing either 2.5 mM NB, 2.5 mM VA, or no drug for 72 hours at a density of 4.58×10^5 cells per 15-cm dish. Cells were harvested for RNA isolation at this point, or used for biological assays as described below.
The TaqMan Low-Density Array (Applied Biosystems) consists of TaqMan qPCR reactions targeting the cooperation response genes available and control genes (18S rRNA, GAPDH) in a microfluidic card. TLDA were used to independently test gene expression differences observed in the CMap database which used Affymetrix arrays. To generate cDNA for qPCR analysis, quadruplicate samples of RNA was isolated from untreated YAMC cells or mp53/Ras cells treated with either 2.5 mM VA, 2.5 mM NB or no drug for 72 hours, using the RNeasy and Qiashredder kits (Qiagen). Ten μg of RNA per sample were mixed with 1× SuperScript II First Strand buffer, 10 mM DTT, 400 μM dNTP mixture, 0.3 ng random hexamer primer, 2 μL RNaseOUT RNase inhibitor and 2 μL of SuperScript II reverse transcriptase in a 100 μL reaction (all components from Invitrogen). RT reactions were carried out by denaturing RNA at 70° C. for 10 minutes, plunging RNA on to ice, adding other components, incubating at 42° C. for 1 hour and heat inactivating the RT enzyme by a final incubation at 70° C. for 10 minutes.
For each sample, 82 μL of cDNA was combined with 328 μl of nuclease free water (Invitrogen) and an equal volume of TaqMan Universal PCR Master Mix No AmpErase UNG (Applied Biosystems). The mixture was loaded into each of 8 ports on the card at 100 μL per port. Each reaction contained forward and reverse primer at a final concentration of 900 nM and a TaqMan MGB probe (6-FAM) at 250 nM final concentration. […]. The real-time RT-PCR amplifications were run on an ABI Prism 7900HT Sequence Detection System (Applied Biosystems) with a TaqMan Low Density Array Upgrade. Thermal cycling conditions were as follows: 2 min at 50° C., 10 min at 94.5° C., 40 cycles of 97° C. for 30 seconds, and annealing and extension at 59.7° C. for 1 minute. Each individual replicate cDNA sample was processed on a separate card.
Gene expression values were derived using SDS 2.2 software package (Applied Biosystems). Differential gene expression was calculated by the ΔΔCt method. Briefly, using threshold cycle (Ct) for each gene, change in gene expression was calculated for each sample comparison by the formulae: […]

The subject of series [7] is HT-29 cells. Briefly: Xenograft tumor formation by HT-29 colon cancer cells in nude mice. Type of series: in vivo, human. As to conditions: HT-29 cells with gene perturbation, vs matched vector control. How it is done: as §5
In general terms: Xenograft models place foreign cells or tissue in a host animal.

As for `CCCC(=O)[O-].[Na+]` [sodium butyrate], the cell morphology result is on record as “unaffected” in series [1] and “dramatic morphological change” in series [4] (transformed cells, 5 mM, three days, 10% FBS medium). Besides, the “increase in cell death (TUNEL)” value in series [2] is reported as “greater than five-fold”. In addition, in series [3], the “apoptosis (TUNEL)” value is reported as “did not decrease apoptosis”. Also, in series [4], the “cell proliferation over time” value is on record as “completely inhibited”. In addition, the “tumor formation in nude mice by drug-pre-treated cells” value in series [5] (four weeks) is recorded as “significantly smaller tumors”. In addition, in series [5] (mp53/Ras cells treated with 2.5 mM NB for three days before injection, 500,000 cells s.c. in CD1 nude mice, four weeks, tumors/injections), the “NB Tumors” value was 1/16. Besides, the “proportion of CRGs whose expression is significantly altered (reversal of CRG signature)” value was about 55% in series [6] and “about 55%” in series [6] (listed as NB).

As to `CCCC(CCC)C(=O)O` [valproic acid], the “cell proliferation over time” value in series [4] is “completely inhibited”. Besides, the “tumor formation in nude mice by drug-pre-treated cells” value in series [5] (four weeks) is listed as “significantly smaller tumors”. In addition, the “proportion of CRGs whose expression is significantly altered (reversal of CRG signature)” value is given as about 55% in series [6] and “about 55%” in series [6] (listed as VA).

As for “Plac8: shRNA-dependent stable knock-down of up-regulated CRG Plac8 (retroviral) (sense CTGGCAGACCAGCCTGTGTTT; the letters are possibly those of the target site)”, the “% Change in Tumor Volume (Perturbed vs. Control)” value (from here on “% Change in Tumor Volume”) is reported as −100.00% in series [7] and −100% in series [5].

For “Rgs2: shRNA-dependent stable knock-down of up-regulated CRG Rgs2 (retroviral) (sense GCGCAGCTCTGGGCAGAAG; the letters are possibly those of the target site)”, the “% Change in Tumor Volume” value in series [5] was −60%.

For the compound “Slc14a1: shRNA-dependent stable knock-down of up-regulated CRG Slc14a1 (retroviral) (sense TCCTGATTCTGGTGGGACT; the letters are possibly those of the target site)”, the “% Change in Tumor Volume” value in series [5] amounted to 180%.

As for “Sod3: shRNA-dependent stable knock-down of up-regulated CRG Sod3 (retroviral) (sense GGCGACACGCATGCCAAAG; target site or template, no part of the molecule)”, in series [5], the “% Change in Tumor Volume” value is given as −72%.

The values above are taken from patent US20120082659A1, “Methods And Compositions Related To Synergistic Responses To Oncogenic Mutations” (priority 2007, published 2012).
